Assay [1] deals with adult human bone marrow CD34+ cells. The assay can be described thus: Phenotypic analysis (FACS) of marrow CD34+ cells after ex vivo culture. Format: cell-based. To be noted: 9 days of culture; single agent; % of total cells. The method, then: To promote cell division of isolated CD34^+ cells, a stroma-free suspension culture was established as previously described (Bazil et al., 1995). Tissue culture dishes (35 mm; Costar, Corning, N.Y.) were seeded with 1×10^5 CD34^+cells/well in 2.5 mL Iscove modified Dulbecco medium (IMDM) (Biowhittaker, Walkersville, Md.) containing 30% FBS and a cocktail of cytokines specifically thought to promote exit from G0/G1 in primitive HSC populations which consisted of 100 ng/mL recombinant stem cell factor (SCF), 100 ng/mL FLT-3 ligand, 100 ng/mL thrombopoetin (TPO) and 50 ng/mL of interleukin (IL)-3, (all from Amgen Inc., Thousand Oaks, Calif.).
Cells were maintained in the media and incubated at 37° C. in a 100%-humidified atmosphere containing 5% CO2 for 48 hours. After intial 16 hours of incubation cells were exposed to the demethylating agent, 5-aza2′deoxycitidine (5azaD) (Sigma Chemicals, St. Louis, Mo.) at a concentration of 10^−6M. After 48 hours, cells were washed by centrifugation and then equally distributed to new tissue culture dishes in 2.5 mL IMDM supplemented with 30% FBS containing cytokines known to promote terminal differentiation of HSC into multiple hematopoietic lineages. The cocktail of cytokines contained 100 ng/mL of SCF, 50 ng/ml of granulocyte colony-stimulating factor (G-CSF), 50 ng/mL of IL-3, 50 ng/ml of IL-6 and 5 units (U)/mL of recombinant erythropoietin (EPO) (Amgen Inc., Thousand Oaks, Calif.). Cells at this time point were exposed to Trichostatin (TSA) (Sigma Chemical., St. Louis, Mo.) at 5 ng/mL and the culture was continued for an additional 7 days. At the end of the culture period cells were counted for viability by the trypan blue exclusion method using an inverted microscope. 5-fluorouracil (5-FU) (Sigma Chemical., St. Louis, Mo.) was used at a concentration of 200 μg/ml and added at the 16 hour time point instead of 5azaD and the cultures carried on as described above with no addition of TSA.
The phenotypic characteristics of the CD34^+ cells were analyzed using FACS. After 9 days of culture, expanded marrow CD34^+ cells were analyzed for primitive HSC phenotype, previously defined, by using flow activated-cell sorter (FACS) (Becton Dickinson (BD) FACS Calibur, San Jose, Calif.). Cells were stained with anti-human CD34^+ moAb conjugated either to fluorescein isothiocyanate (FITC) or phycoerythrin (PE) and another moAb including anti-CD38, anti-CD117, anti-CD90. To determine the lineage positive cells a panel of moab all conjugated to FITC (anti-CD2, anti-CD14, anti-CD15, anti-CD19 and anti-GlyA) (all antibodies were purchased from BD) were utilized. All anaylsis were paired with the corresponding matched isotype control of the specific moAb utilized. All staining and washes were performed in DPBS (Biowhittaker, Walkersville Md.) and 0.5% BSA (Sigma, Chemicals Co., St. Louis, Mo.). Immediately prior to FACS anaylsis, […] propidium iodide (PI) (Sigma, Chemicals Co., St. Louis, Mo.) was added for the exclusion of nonviable cells for phenotypic analysis. Using Cell-Quest software (BD), at least 10,000 live cells were acquired for each analysis.

Assay [2] shares this test system. The assay can be described thus: Cobblestone area-forming cell (CAFC) assay in limiting dilution. Format: cell-based. To be noted: for CAFC/10,000 Cells: after 9 days of culture, unfractionated, cobblestone areas counted after 5 weeks. The method, then: The ability of primitive HSC to form cobblestone areas (CA) in long term marrow cultures has been used as an in vitro surrogate progenitor HSC assay (Breems et al., Leukemia, 8:1095-1104, 1994, Lefkovits et al., Immunol. Today, 5:265-268, 1984; Cross et al., Curr. Opin. Genet. Dev., 5:609-613, 1997). CD34^+ cells after 9 days of culture from each condition were plated in limiting dilution in flat-bottomed 96-well plates (Costar) onto confluent, irradiated (7000cGy) monolayers of the murine stromal fibroblast line M2-10B4 (a gift from Dr. C. Eaves, Vancouver, BC, Canada). Each well contained 200 μL of a 50:50 mixture of IMDM and RPMI with 10% FBS. A cocktail of growth factors, including 100 ng/mL SCF, 100 ng/mL leukemia inhibitory factor (LIF), 50 ng/mL IL-3, 50 ng/mL IL-6 and 50 ng/mL granulocyte-monocyte colony stimulating factor (GM-CSF) (Amgen, Thousand Oaks, Calif.).
The cultures were fed weekly by replacement of one half of the culture volume with fresh medium containing the above cytokines at 2 times the previously defined concentration. After 5 weeks of culture in a humidified incubator at 37° C. containing 5% CO2, the number of CA were ennumerated. The CAFC frequency was computed by means of minimization of chi regression to the cell number at which 37% of wells were negative for CA formation, with 95% statistical precision using L-Calc (Limiting dilution calculation) software (Stem Cell Inc., Vancouver, Canada; Lefkovits et al., Curr. Opin. Genet. Dev. 5:609-613, 1997).

In a further assay the test system is NOD/SCID mice. The assay can be described thus: Marrow repopulation assay of human cell grafts in NOD/SCID mice. Format: in vivo. The settings on record: cells after 9 days of culture with cytokines; 7 weeks. The method, then: A colony of immunodeficient nonobese diabetic/ltsz-scid/scid (NOD/SCID) mice were purchased from the Jackson Laboratories (Bar Harbor, Me.) and were maintained as previously described (Coneallt et al., Proc. Nat'l Acad. Sci. USA, 94:9836-41, 1997). All NOD/SCID mice were kept under sterile conditions in the microisolator cages and were provided with autoclaved food and acidified water.
Mice were given 300cGy of total body gamma irradiation and human grafts were injected via the tail vein. Cytokines including SCF, IL-3 and GM-CSF at 5 ug/mouse were injected intraperitoneally on alternate days following injection of human grafts during the first week of transplant. Sulfamethoxazole (40 mg/mL) and Trimethoprim (8 mg/mL)(SMX/TMZ; Elkins-Sinn, Cherry Hill, N.J.) were added in the drinking water for 3 days post injection and then subsequently for 3 days beginning the second week of transplant. Mice were sacrificed after 7 weeks. Femurs and tibias were flushed with Hank's balanced salt solution (HBSS) (Biowhittiker) with 2% FBS (Hyclone) and 0.02% sodium azide and cell counts performed. […] Marrow cells were analyzed by flow cytometry to detect human cell engraftment as previously described.^29 Briefly to quantitate the total number of human cells present an aliquot of cells was stained with anti-CD45-FITC(BD) and anti-CD71-FITC(BD). […]

For the compound `Nc1ncn([C@H]2C[C@H](O)[C@@H](CO)O2)c(=O)n1` [5azaD, 5-aza2′deoxycitidine], in assay [1], the “CD34+ CD90+ %” value is recorded as 7%, the “CD34+ CKit lo %” value is 19%, the “CD34+ Lin− %” value is 30% and the “CD34+CD38− %” value is on record as 20%. Further, in assay [1], the “CD34+CD133+ %” value is 12% and the “Total CD34+ %” value was determined as 30%. In assay [2] (9 days with cytokines), the “fold increase in the number of CAFC over the primary cells” value stood at 1.9 fold. Further, the “CAFC/10,000 Cells” value in assay [2] is recorded as 96 CAFC/10,000 cells. Further, the “marrow repopulating activity: engraftment and multilineage differentiation” value in the assay on NOD/SCID mice is recorded as “retained the ability to engraft NOD/SCID mice”.
As for `CC(/C=C/C(=O)NO)=C\[C@@H](C)C(=O)c1ccc(N(C)C)cc1` [TSA, Trichostatin A], in assay [1], the “CD34+ CD90+ %” value is given as 0.8%, the “CD34+ CKit lo %” value worked out at 3%, the “CD34+ Lin− %” value turned out to be 4% and the “CD34+CD38− %” value was determined as 1.8%. Besides, in assay [1], the “CD34+CD133+ %” value was found to be 0.45% and the “Total CD34+ %” value came to 4%. Also, the “numbers of CAFC relative to cytokines alone” value in assay [2] (9 days with cytokines) was “comparable numbers of CAFC as cultures receiving cytokines alone”. For the same compound, the “CAFC/10,000 Cells” value in assay [2] is listed as 16 CAFC/10,000 cells. The “marrow repopulating activity: engraftment and multilineage differentiation” value in the assay on NOD/SCID mice is listed as “no longer possessed such marrow repopulating activity”.

These data come from patent publication US7927785B2, “Methods for in vitro expansion of hematopoietic stem cells” (The Board of Trustees of the University of Illinois, priority 2002, dated 2011).
